Each structure is given as a SMILES string. Activity calls are given as the source filed them. Rule as the data show it: actives have a measured IC50 and inactives only a lower limit.

The IC50 is the concentration at which inhibition is half-maximal.

Sequence of Envelope glycoprotein gp160 (Q6QLK5 whole entry, the tested form may be a part): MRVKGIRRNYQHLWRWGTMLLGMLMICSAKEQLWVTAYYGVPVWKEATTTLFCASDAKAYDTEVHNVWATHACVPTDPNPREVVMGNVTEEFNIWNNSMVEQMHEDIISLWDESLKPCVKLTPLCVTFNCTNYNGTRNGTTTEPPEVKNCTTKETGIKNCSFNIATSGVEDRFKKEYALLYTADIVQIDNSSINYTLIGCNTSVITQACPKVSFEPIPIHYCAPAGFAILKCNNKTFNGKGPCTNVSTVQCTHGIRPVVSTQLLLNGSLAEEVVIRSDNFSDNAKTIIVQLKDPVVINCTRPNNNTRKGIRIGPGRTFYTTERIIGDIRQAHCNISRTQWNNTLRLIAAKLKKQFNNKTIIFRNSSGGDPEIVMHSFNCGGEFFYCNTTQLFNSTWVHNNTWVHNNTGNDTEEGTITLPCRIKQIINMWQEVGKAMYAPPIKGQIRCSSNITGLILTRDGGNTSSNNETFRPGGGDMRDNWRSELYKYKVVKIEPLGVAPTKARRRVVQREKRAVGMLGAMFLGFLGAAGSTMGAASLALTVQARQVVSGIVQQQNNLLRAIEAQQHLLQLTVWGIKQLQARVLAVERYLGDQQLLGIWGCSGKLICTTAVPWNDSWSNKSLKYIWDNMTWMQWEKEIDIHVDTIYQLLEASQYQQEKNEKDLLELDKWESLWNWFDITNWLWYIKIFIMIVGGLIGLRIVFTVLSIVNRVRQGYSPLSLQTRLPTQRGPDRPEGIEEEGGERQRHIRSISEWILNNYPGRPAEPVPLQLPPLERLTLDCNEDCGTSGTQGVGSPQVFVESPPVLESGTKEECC

The assay concerns the target Envelope glycoprotein gp160 (Human immunodeficiency virus 1, UniProt Q6QLK5). The assay can be described thus: cell-free HIV fusion peptide-binding blockers – biochemical, uHTS, fluorescence dequenching, […] (AID 1986).
`O=C(O)c1ccccc1NC(=O)c1ccccc1Nc1ccccc1`: the IC50 is 17.5 µM (active).
On to `O=C(O)CCCCCN1C(=O)/C(=C\c2cn(-c3ccccc3)nc2-c2cccs2)SC1=S`, for which the IC50 was 9.84 µM (active).
The result for `Cc1ccc(S(=O)(=O)Oc2ccc(/C=C3/C(=N)N4C(=NC3=O)SN=C4S(C)(=O)=O)cc2)cc1` reads 16.9 µM (active).
The result for `CCOC(=O)C1=C(C)N=c2s/c(=C\c3ccc(OCC(=O)O)cc3)c(=O)n2C1c1ccc(OC(C)C)cc1` (centres undefined) reads 16.3 µM (active).
